Laboratory results as given in patent publication US5856127A, “Antimicrobial peptides” (The Research Foundation of State University of New York, priority 1996, dated 1999).
Where a SMILES comes first, the peptide text is derived from it.

Columns and labels:
[1] = system: Salix lucida pollen; type: cell-based; details: pH 6.2
Method: Willow pollen was extracted using the protocol described by de Niella and Maynard (1993). Catkins were gently stirred in carbon tetrachloride. The pollen/carbon tetrachloride suspension was filtered (Whatman filter paper) with suction. The pollen was transferred to microfuge tubes (1.5 ml) with a fine-bristle artist's brush and stored at -20° C.
(§1) To rehydrate, small amounts of pollen were placed in open microfuge tubes (1.5 ml) which were placed into a closed glass petri dish with a dampened tissue. Pollen was rehydrated overnight in a dark chamber at 14° C.
(§2) Rehydrated plant pollen was diluted with sucrose-boric acid medium ("SBM") to a concentration of 80 grains/μl (Neubauer hemocytometer). Media for pollen germination (SBM, pH 6.2) was prepared with deionized distilled water, sucrose (150 g/L), and boric acid (150 mg/L). Dilutions of all peptides tested against rehydrated pollen grains were aseptically prepared with sterile SBM. Aliquots (50 μl) of peptide solutions were aseptically placed in ELISA microtitre plates as before. Approximately 400 pollen grains (5 μl) were added to the 50 μl volume of peptide solution in the well to give the final peptide concentrations of 0, 1.25, 2.5, 5, 10, 15, 20, 25, 50, 100, 150, 200, and 250 μM. Microtitre plates were incubated in the dark at room temperature for 24 hr. […] All tests were repeated 4 or more times. Controls without peptides were included with all tests. The highest concentration tested was 250 μM.

[2] = system: Castanea mollissima pollen; type: cell-based; details: pH 6.2
Method: (§3) Pollen collections for Chinese chestnut (Castanea mollissima), tomato (Lycopersicon esculentum), and willow (Salix lucida) clone 507 were made in central New York. Chestnut catkins and tomato flowers were placed into paper bags in an ice chest. Within 2 hr after collection, catkins were cut into 1.0 cm segments and tomato anthers were placed into sterile 15 ml Falcon tubes. The tubes were "capped" with parafilm punctured with 12-15 holes and lyophilized for 24 hr. Lyophilized samples were stored at -20°C. until removed for rehydration.
as §1, §2

[3] = system: Septoria musiva; assay: MIC against fungal conidia (Septoria musiva); type: cell-based; details: strain 92-49C, PDAmb pH 5.2, scored at 6 days, total prevention of germination
Method: (§4) Dilutions of peptides, prepared in sterile deionized water, were placed (20 μl aliquots) in Corning disposable sterile polystyrene ELISA plates (96 well, high binding) which had been pretreated with bovine serum albumin by rinsing each well with 200 μl of a 1.0 mg/ml solution.
(§5) Media (PDAmb, pH 5.2) was prepared with deionized water, Difco potato dextrose broth (12 g/L), Sigma D,L-methionine (0.05 g/L), Sigma biotin (2 mg/L), and FisherBiotech low melting point agarose (20 g/L). Sterilized media was added to the wells to make a final volume of 100 μl and allowed to harden for 3 hr prior to inoculation with 10 μl of conidial suspension. Peptide concentrations tested were 0, 1.25, 2.5, 5, 10, 15, 20, 25, 50, 100, 150, 200, and 250 μM.
(§6) Fungal conidial suspensions were aseptically prepared from agar plate cultures of C. parasitica and S. musiva or liquid cultures for F. oxysporum f.sp. lycopersici. Conidia were suspended from agar plates with 10 ml sterile 1% Tween 20. All culture suspensions were filtered through four layers of sterile cheesecloth, collected in sterile 15 ml Falcon tubes, and centrifuged for 3 min at 1900×g. The pellets were then suspended in 10 ml sterile deionized water and centrifuged for 3 min at 1900×g. The "washed" pellets were suspended in 5 ml sterile deionized water. The conidial concentration was determined using a hemocytometer (Fisher ultra plane, Neubauer ruling) and then diluted to 1.0×10^4 conidia/ml.
(§7) Approximately 100 conidia (10 μl) were transferred to each microtitre plate well. Microtitre plates were incubated in ambient light at room temperature in a moist chamber (plastic box containing wet paper towels and covered with clear plastic wrap). Tests with S. musiva used continuous light. Plates were scored for growth at 6 days and photographed. All tests were repeated 4 or more times. Controls without peptides were included with all tests.

[4] = system: Fusarium oxysporum; assay: MIC against fungal conidia (Fusarium oxysporum); type: cell-based; details: f. sp. lycopersici strain 73, PDAmb pH 5.2, scored at 6 days
Method: as §4, §5, §6, §7

[5] = system: Cryphonectria parasitica; assay: MIC against fungal conidia (Cryphonectria parasitica); type: cell-based; details: strain EP42, PDAmb pH 5.2, scored at 6 days
Method: as §4, §5, §6, §7

[6] = system: microorganisms and animal red blood cells; details: cited from earlier work
[7] = system: Candida albicans; details: against the yeast Candida albicans; cited from earlier work
[8] = system: Agrobacterium tumefaciens; assay: MIC against bacteria (Agrobacterium tumefaciens); type: cell-based; details: wild-type strain Bo542, no visible lawn or colonies after 3 days
Method: as §4
(§8) Bacterial suspensions of A. tumefaciens, E. amylovora, and P. syringae were obtained from liquid cultures grown in Luria Broth (Atlas and Parks 1993). Cultures were grown at 25°C. on a rotary shaker (110 rpm) for 14 hr. Bacterial cell suspensions with an optical density between 0.7 and 0.85 at 600 nanometers (OD600) were used for assay inoculations. Dilutions of peptides were placed in the 96-well ELISA plates as described above. The final peptide concentrations tested were 0, 0.625, 1.25, 2.5, 5, 10, 15, 20, 25, 50, 100, and 250 μM. All tests were repeated 2 or more times. Controls without peptides were included with all tests. The MIC for bacterial cells was the lowest peptide concentration associated with no visible bacterial lawn or isolated colonies on the medium after 3 days in all the repeated tests.

[9] = system: Erwinia amylovora; assay: MIC against bacteria (Erwinia amylovora); type: cell-based; details: Collection 88-100, no visible lawn or colonies after 3 days
Method: as §4, §8

[10] = system: Pseudomonas syringae; assay: MIC against bacteria (Pseudomonas syringae); type: cell-based; details: Collection PSS34, no visible lawn or colonies after 3 days
Method: as §4, §8

[11] = system: bacteria; assay: Activity against bacteria relative to magainin (applicants' observation); type: cell-based; details: three amino acid substitution versus magainin
[12] = system: selected filamentous fungi; assay: Activity against filamentous fungi relative to magainin (applicants' observation); type: cell-based; details: three amino acid substitution versus magainin
[13] = system: Pseudomonas aeruginosa; details: against Pseudomonas aeruginosa; cited from earlier work
[14] = combined with either magainin I or magainin II in a 1:1 molar ratio; cited from earlier work
[15] = system: Lycopersicon esculentum pollen; type: cell-based; details: pH 6.2
Method: as §3, §1, §2

[16] = system: Malus domestica pollen; type: cell-based; details: pH 6.2
Method: Apple (Malus domestica) cultivar "Empire" pollen was supplied by Susan Brown, Department of Horticultural Sciences, Cornell University, New York State Agricultural Experiment Station, Geneva, N.Y.
as §1, §2

CSCC[C@H](N)C(=O)N[C@@H](C)C(=O)N[C@@H](CO)C(=O)N[C@@H](CCCNC(=N)N)C(=O)N[C@@H](C)C(=O)N[C@@H](C)C(=O)NCC(=O)N[C@@H](CC(C)C)C(=O)N[C@@H](C)C(=O)N[C@@H](CCCNC(=N)N)C(=O)N[C@@H](CCCNC(=N)N)C(=O)N[C@@H](CC(C)C)C(=O)N[C@@H](C)C(=O)N[C@@H](CCCNC(=N)N)C(=O)N[C@@H](CC(C)C)C(=O)N[C@@H](C)C(=O)N[C@@H](CCCNC(=N)N)C(=O)N[C@@H](CCCNC(=N)N)C(=O)N[C@@H](C)C(=O)N[C@@H](CC(C)C)C(=O)O [ESF5] (H-MASRAAGLARRLARLARRAL-OH)
MIC, Salix lucida [1]: > 250 µM
MIC, Castanea mollissima [2]: > 250 µM

CSCC[C@H](N)C(=O)N[C@@H](C)C(=O)N[C@@H](CO)C(=O)N[C@@H](CCCNC(=N)N)C(=O)N[C@@H](C)C(=O)N[C@@H](C)C(=O)NCC(=O)N[C@@H](CC(C)C)C(=O)N[C@@H](C)C(=O)N[C@@H](C)C(=O)N[C@@H](CCCNC(=N)N)C(=O)N[C@@H](CC(C)C)C(=O)N[C@@H](C)C(=O)N[C@@H](CCCNC(=N)N)C(=O)N[C@@H](CC(C)C)C(=O)N[C@@H](C)C(=O)N[C@@H](CC(C)C)C(=O)N[C@@H](CCCNC(=N)N)C(=O)N[C@@H](C)C(=O)N[C@@H](CC(C)C)C(=O)O [ESF1] (H-MASRAAGLAARLARLALRAL-OH)
MIC, Salix lucida [1]: > 250 µM
MIC, Castanea mollissima [2]: > 250 µM

cecropin B
MIC, Septoria musiva [3]: 5 µM
MIC, Fusarium oxysporum [4]: 20 µM
MIC, Cryphonectria parasitica [5]: 15 µM

CC[C@H](C)[C@H](NC(=O)CN)C(=O)NCC(=O)N[C@@H](C)C(=O)N[C@H](C(=O)N[C@@H](CC(C)C)C(=O)N[C@@H](CCCCN)C(=O)N[C@H](C(=O)N[C@@H](CC(C)C)C(=O)N[C@H](C(=O)N[C@H](C(=O)NCC(=O)N[C@@H](CC(C)C)C(=O)N1CCC[C@H]1C(=O)N[C@@H](C)C(=O)N[C@@H](CC(C)C)C(=O)N[C@H](C(=O)N[C@@H](CO)C(=O)N[C@@H](Cc1c[nH]c2ccccc12)C(=O)N[C@H](C(=O)N[C@@H](CCCCN)C(=O)N[C@@H](CCCNC(=N)N)C(=O)N[C@@H](CCCCN)C(=O)N[C@@H](CCCNC(=N)N)C(=O)N[C@@H](CCC(N)=O)C(=O)N[C@@H](CCC(N)=O)C(N)=O)[C@@H](C)CC)[C@@H](C)CC)[C@@H](C)O)[C@@H](C)O)C(C)C)C(C)C [melittin]
lytic activity [6]: very lytic

XPF
times more effective than PGLa [7]: 2-2.5 times

Magainin I
MIC, Septoria musiva [3]: 5 µM
MIC, Fusarium oxysporum [4]: 15 µM
MIC, Cryphonectria parasitica [5]: 10 µM

(Ala^8,13,15)magainin II [Ala^8,13,15 Magainin II]
MIC, Septoria musiva [3]: 10 µM
MIC, Fusarium oxysporum [4]: 15 µM
MIC, Cryphonectria parasitica [5]: 30 µM
MIC, Agrobacterium tumefaciens [8]: 100 µM
MIC, Erwinia amylovora [9]: 250 µM
MIC, Pseudomonas syringae [10]: 250 µM
change of magainin activity against bacteria [11]: increased magainin activity against bacteria
change of magainin activity against selected filamentous fungi [12]: opposite effect

PGLa
times more active than XPF [13]: 4-5 times
increase of antimicrobial activity [14]: 20-50 fold

CSCC[C@H](N)C(=O)N[C@@H](C)C(=O)N[C@@H](CO)C(=O)N[C@@H](CCCNC(=N)N)C(=O)N[C@@H](C)C(=O)N[C@@H](C)C(=O)NCC(=O)N[C@@H](CC(C)C)C(=O)N[C@@H](C)C(=O)N[C@@H](C)C(=O)N[C@@H](CCCNC(=N)N)C(=O)N[C@@H](CC(C)C)C(=O)N[C@@H](C)C(=O)N[C@@H](CCCNC(=N)N)C(=O)N[C@@H](CC(C)C)C(=O)N[C@@H](C)C(=O)N[C@@H](CC(C)C)C(=O)N[C@@H](CCCNC(=N)N)C(=O)O [ESF12] (H-MASRAAGLAARLARLALR-OH)
MIC, Salix lucida [1]: > 250 µM
MIC, Castanea mollissima [2]: > 250 µM
MIC, Lycopersicon esculentum [15]: > 250 µM
MIC, Malus domestica [16]: > 250 µM

CSCC[C@H](N)C(=O)N[C@@H](C)C(=O)N[C@@H](C)C(=O)N[C@@H](CCCNC(=N)N)C(=O)N[C@@H](C)C(=O)N[C@@H](C)C(=O)NCC(=O)N[C@@H](CC(C)C)C(=O)N[C@@H](C)C(=O)N[C@@H](C)C(=O)N[C@@H](CCCNC(=N)N)C(=O)N[C@@H](CC(C)C)C(=O)N[C@@H](C)C(=O)N[C@@H](C)C(=O)N[C@@H](CC(C)C)C(=O)N[C@@H](C)C(=O)N[C@@H](CC(C)C)C(=O)N[C@@H](CCCNC(=N)N)C(=O)N[C@@H](C)C(=O)N[C@@H](CC(C)C)C(=O)O [ESF6] (H-MAARAAGLAARLAALALRAL-OH)
MIC, Salix lucida [1]: > 250 µM
MIC, Castanea mollissima [2]: > 250 µM
